Reference: US5290553A, “Alkaloids of picralima nitida used for treatment of protozoal diseases” (The United States of America as represented by the …, priority 1991, dated 1994)
In brackets after ≈: the same amount, converted by molar mass. Read-outs that look alike come from different tables or passages of the source.

Assays:
[1] = tested on: Plasmodium falciparum D-6 clone (Sierra Leone); test: In vitro antimalarial assay, D-6 clone (tritiated hypoxanthine uptake); assay type: cell-based; details: for IC50: Plasmodium falciparum, read-out: IC50, D-6 Clone
Protocol: (§1) The in vitro assays were performed by using a modification of the semi-automated microdilution technique described earlier in Desjardins et al.^29 and Milhous et al.^30 Two P. falciparum malaria parasite clones, designated as Indochina (W-2) and Sierra Leone (D-6), were utilized in susceptibility testing. The W-2 clone is resistant to chloroquine, pyrimethamine, sulfadoxine, and quinine, and the other clone is resistant to mefloquine. The test extracts were dissolved in dimethylsulfoxide (DMSO) and serially diluted with media. The uptake of tritiated hypoxanthine was used as an index of inhibition of parasite growth.
(§2) Two P. falciparum malaria parasite clones, designated as Indochina (W-2) and Sierra Leone (D-6), were utilized in susceptibility testing. The W-2 clone is resistant to chloroquine, pyrimethamine, sulfadoxine, and quinine, and the other clone is resistant to mafloquine.
(§3) The test extracts were dissolved in DMSO and serially diluted with media. The uptake of tritiated hypoxanthine was used an an index of inhibition of parasite growth.

[2] = tested on: Plasmodium falciparum W-2 clone (Indochina); test: In vitro antimalarial assay, W-2 clone (tritiated hypoxanthine uptake); assay type: cell-based; details: for IC50: Plasmodium falciparum, read-out: IC50, W-2 Clone
Protocol: as §1, §2, §3

[3] = tested on: Trypanosoma brucei brucei; test: In vivo antitrypanosomial activity, rat; details: 7 mg i.p.
[4] = tested on: Trypanosoma brucei brucei; test: In vivo antitrypanosomial activity, mouse; details: 7 mg i.p.
[5] = tested on: Leishmania (Leishmania) chagasi MHOM/BR/84/BA-13; details: previously determined; cited from earlier work
[6] = tested on: Leishmania (Leishmania) chagasi promastigotes (MHOM/BR/84/BA-13); test: Growth inhibition of leishmania promastigotes over 96 hours; assay type: cell-based
Protocol: A clinical isolate of visceral Leishmania (Leishmania) chagasi, MHOM/BR/84/BA-13, was used for this study. This isolate was selected because sensitivity to SbV was previously determined using RAM. MHOM/BR/84/BA-13 is sensitive to Pentostam (sodium antimony gluconate) at 6 μg/ml Sb (20 μg/ml drug); and to Glucantime (N-methyl-glucamine antimoniate) at 80 μg/ml Sb (286 μg/ml drug)
Promastigotes of L. chagasi were grown in a serum-free, defined medium, MM2^43. The MM2 medium contained 120 μg/ml protein (10 μg/ml human transferrin, 10 μg/ml human insulin, 100 μg/ml defatted bovine albumin), plus 10 μg/ml low density bovine lipoprotein. […] Cultures were maintained at 25° C. during growth and incubation with drug.
Promastigotes were maintained in log phase growth for 3 successive transfers (48-72 hours apart) prior to radiorespirometric testing. Test extracts (or PBSS plus drug solvent [DMSO], for parallel control cultures) was added 24 hours after the third promastigote transfer to fresh growth medium. Incubation in the presence of plant extracts was continued for 96 additional hours while the parasites remained in mid-log phase growth. The rest of the radiorespirometric procedure was conducted as previously described^45.

[7] = tested on: W-2 and D-6 clones of Plasmodium falciparum; test: In vitro antimalarial assay, statements on both clones; assay type: cell-based; details: P. falciparum clones
Protocol: as §1
The in vitro assays were performed by using a modification of the semi-automated microdilution technique described earlier (Desjardins et al., 1979; Milhous et al., 1985). Two P. falciparum malaria parasite clones, designated as Indochina (W-2) and Sierra Leone (D-6), were utilized in susceptibility testing. The W-2 clone is resistant to chloroquine, pyrimethamine, sulfadoxine, and quinine, and the other clone is resistant to mafloquine.
as §3

avian malaria = details: in vivo; cited from earlier work
malaria = details: in vivo; cited from earlier work
[8] = relative to cocaine; cited from earlier work
opiate receptor = details: from cell suspension culture of P. nitida; cited from earlier work
[9] = Table 5, alkaloids and reference drugs

COC(=O)C1=CO[C@@H](C)[C@@H]2CN3CCc4c([nH]c5ccccc45)C3C[C@H]12 (stereo partly shown) [Alstonine (tetrahydro-)]
IC50 [1, 9]: 2.76 µg/mL (≈ 7.83 µM)
IC50 [2, 9]: 2.86 µg/mL (≈ 8.11 µM)

C/C=C1/CN2CC[C@]34C(=C(C(=O)OC)[C@H]1C[C@H]23)Nc1ccccc14 [Akuammicine]
IC50 [1, 9]: 0.45 µg/mL (≈ 1.4 µM)
IC50 [2, 9]: 0.73 µg/mL (≈ 2.26 µM)

N=C(N)c1ccc(N=NNc2ccc(C(=N)N)cc2)cc1 [Berenil]
Day of 0% Parasite Count [3]: 8 days
Day of 0% Parasite Count [4]: 6 days

sodium antimony gluconate [Pentostam]
concentration at which isolate is sensitive, as Sb [5]: 6 μg/ml Sb
concentration at which isolate is sensitive, as drug [5]: 20 μg/ml drug

CC=C1CN2CCC34c5ccccc5N(C)C35OCC4(C(=O)OC)C1CC25 (stereo not shown) [.PSI.-Aukuammigine]
IC50 [1]: 0.83 µg/mL (≈ 2.26 µM)
IC50 [2]: 0.1 µg/mL (≈ 0.273 µM)

C/C=C1/CN2[C@H]3C[C@H]1[C@@H](CO)[C@@H]2Cc1c3[nH]c2ccc(O)cc12 [Sarpagine, reference compound]
IC50 [1, 9]: 16.6 µg/mL (≈ 53.6 µM)
IC50 [2, 9]: 29.2 µg/mL (≈ 94 µM)

COC(=O)C1=CO[C@@H](C)[C@@H]2C[n+]3ccc4c([nH]c5ccccc54)c3C[C@H]12 [Alstonine]
IC50 [1, 9]: 0.02 µg/mL
inhibition of leishmania promastigotes, ranking ([6]; alkaloids isolated from the active fraction): greatest inhibition
concentration of the highest growth inhibition ([6]; leishmania promastigotes): 50 µg/mL
growth inhibition, dose relation ([6]; leishmania promastigotes): dose related activity
IC50 [2, 9]: 0.09 µg/mL

C/C=C1/C[N@+]2(C)CC[C@@]34c5ccccc5N[C@]32[C@@H](O)C[C@@H]1[C@@]4(CO)C(=O)OC [Echitamine, reference compound]
IC50, D-6 Clone [1, 9]: 4.68 µg/mL
IC50, W-2 Clone [2, 9]: 7.25 µg/mL
antimalarial activity in vitro [7]: no activity

CC=C1CN2C3CC1C(CO)C2Cc1c3[nH]c2ccccc12 (stereo not shown) [PNF-S7]
IC50 [1, 9]: 7.6 µg/mL (≈ 25.8 µM)
IC50 [2, 9]: 10.6 µg/mL (≈ 36 µM)

COC(=O)[C@@H]1[C@H]2C[C@H]3c4[nH]c5ccccc5c4CCN3C[C@@H]2CC[C@@H]1O [Yohimbine, reference compound]
IC50 [1]: 7.51 µg/mL (≈ 21.2 µM)
IC50 [2]: 6.16 µg/mL (≈ 17.4 µM)

CC[C@H]1[C@@H]2C[C@H]3[C@@H]4N(C)c5ccccc5[C@]45C[C@@H]([C@@H]2[C@H]5O)N3[C@@H]1O [Ajmaline, reference compound]
IC50 [1, 9]: 4.7 µg/mL (≈ 14.4 µM)
IC50 [2, 9]: 1.24 µg/mL (≈ 3.8 µM)

CCN(CC)CCCC(C)Nc1ccnc2cc(Cl)ccc12 (stereo not shown) [Chloroquine, reference compound]
IC50 [1]: 0.006 µg/mL (≈ 0.0188 µM)
IC50 [2]: 0.04 µg/mL (≈ 0.125 µM)

CC=C1CN2C3CC45c6ccccc6NC4(O3)C2CC1C5(COC(C)=O)C(=O)OC (stereo not shown) [Picraline]
IC50 [1, 9]: 0.78 µg/mL (≈ 1.9 µM)
IC50 [2, 9]: 0.53 µg/mL (≈ 1.29 µM)

C/C=C1/CN2CC[C@@]34c5cc(O)ccc5N(C)[C@]35OC[C@@]4(C(=O)OC)[C@@H]1C[C@H]25 [Akuammine]
activity against avian malaria (avian malaria): inactive against avian malaria
IC50 [1, 9]: 0.95 µg/mL (≈ 2.48 µM)
IC50 [2, 9]: 0.66 µg/mL (≈ 1.73 µM)
activity in clinical trials (malaria): inactive
local anesthetic action [8]: local anesthetic action comparable to that of cocaine

N-methyl-glucamine antimoniate [Glucantime]
concentration at which isolate is sensitive, as Sb [5]: 80 μg/ml Sb
concentration at which isolate is sensitive, as drug [5]: 286 μg/ml drug

C[C@@H]1CC[C@H]2[C@@H](C)C(=O)O[C@@H]3O[C@@]4(C)CC[C@@H]1[C@]32OO4 [Artemisinin, reference compound]
IC50 [1, 9]: 0.004 µg/mL (≈ 0.0142 µM)
IC50 [2, 9]: 0.002 µg/mL (≈ 0.00708 µM)

C=C1c2[nH]c3ccccc3c2CCN2CC[C@@H]1/C(=C\C)C2 [pericine]
CNS activity, opiate receptor binding (opiate receptor): CNS active
